Experiments:
[1] = system: BMP4-directed C3H10T1/2; experiment: Artemisinin and analogues on BMP4-directed C3H10T1/2 (morphology, Western blot); type: cell-based; conditions: concentration shown in FIG. 8, from Day 0 of differentiation; vs control
Experimental: 4.3.1 Culture and Differentiation of C3H10T1/2 According to Method 2.4.1.
Artemisinin, artesunate and dihydroartemisinin were stored in DMSO at a storage concentration of 10 mMol/L. The concentration shown in FIG. 8 was added on Day 0 of differentiation. Fresh medium was replaced every two days, and the corresponding concentrations of compounds were added until the cells differentiated to mature.
The method for extracting C3H10T1/2 cell total protein was the same as 2.4.3;
Western blot method and catalog number of antibody was the same as 2.4.4.

[2] = system: high fat-fed mice; experiment: Subcutaneous artemether, weight gain induced by high-fat diet; type: in vivo, Male C57BL/6J mice; conditions: eight weeks
Experimental: The mice were breeded in the SPF animal laboratory of the Laboratory Animal Center of Fudan University at a room temperature of 21° C.-23° C. with a 12-hour light/dark cycle. […] When the mice were grown to 8-week old, they were randomly divided into a control group and an administration group, with 8 mice in each group. While the mice were fed with a high-fat diet, artemether was injected subcutaneously. Artemether was diluted in PBS at a concentration of […], and injected into bilateral inguinal region, with 200 μl being injected into each side. Mice in control group were injected with the same volume of PBS. Administration was continued for eight weeks and the weight of mice was recorded weekly.

[3] = system: high fat-fed mice; experiment: Subcutaneous artemether, fatty liver induced by high-fat diet (HE staining); type: in vivo, Male C57BL/6J mice; conditions: subcutaneous injection, eight weeks, control: obvious lipid accumulation
Experimental: (§1) The mice were breeded in the SPF animal laboratory of the Laboratory Animal Center of Fudan University at a room temperature of 21° C.-23° C. with a 12-hour light/dark cycle. […] When the mice were grown to 8-week old, they were randomly divided into a control group and an administration group, with 8 mice in each group. While the mice were fed with a high-fat diet, artemether was injected subcutaneously. Artemether was diluted in PBS at a concentration of […], and injected into bilateral inguinal region, with 200 μl being injected into each side. Mice in control group were injected with the same volume of PBS. Administration was continued for eight weeks. The mice were sacrificed by cervical dislocation, and liver tissues of mice were removed. The histological analysis including tissue fixation, paraffin embedding, sectioning and HE staining was commissioned by Shanghai Saige Biotech Co., Ltd.

[4] = system: high fat-fed mice; experiment: Subcutaneous artemether, cold exposure and UCP1 immunohistochemistry of subcutaneous fat in high fat-fed mice; type: in vivo, Male C57BL/6J mice; conditions: high-fat diet, subcutaneous injection, eight weeks
Experimental: as §1, with “weeks. Mice were fasted and housed in a breeding box at 4° C. The rectal temperature was measured every 2 hours.” for “weeks.”, “dislocation after 6 hours,” for “dislocation,”, “the inguinal fat was removed for histological analysis.” for “liver tissues of mice were removed.”, “immunohistochemistry experiment of UCP1” for “HE staining”

[5] = system: high fat-fed mice; experiment: Intraperitoneal artemether, weight gain induced by high-fat diet; type: in vivo, Male C57BL/6J mice; conditions: intraperitoneal 20 mg/kg twice a week, eight weeks
Experimental: The mice were breeded in the SPF animal laboratory of the Laboratory Animal Center of Fudan University at a room temperature of 21° C.-23° C. with a 12-hour light/dark cycle. […] When the mice were grown to 8-week old, they were randomly divided into a control group and an administration group, with 8 mice in each group. While the mice were fed with a high-fat diet, artemether was injected intraperitoneally. Artemether for intraperitoneal injection was stored at 4° C. in coconut oil at a storage concentration of 6 mg/ml (20 mMol/L), and protected from light. Mice in administration group were injected with artemether at a dose of 20 mg/kg weight. Administration was twice a week for eight weeks, and the weight of the mice was recorded weekly.

[6] = Intraperitoneal artemether, food intake of mice on normal and high-fat diet; type: in vivo, Male C57BL/6J mice; conditions: intraperitoneal 20 mg/kg
Experimental: The mice were breeded in the SPF animal laboratory of the Laboratory Animal Center of Fudan University at a room temperature of 21° C.-23° C. with a 12-hour light/dark cycle. When the mice were grown to 8-week old, they were randomly divided into four groups, a high-fat control group, a high-fat administration group, a normal administration group, and a normal control group, with 8 mice in each group. Administration groups (high-fat and normal diet) were injected intraperitoneally with artemether. Artemether for intraperitoneal injection was stored at 4° C. in coconut oil at a storage concentration of 6 mg/ml (20 mMol/L), and protected from light. Mice in administration group were injected with artemether at a dose of 20 mg/kg weight, and mice in control group were injected with 100 μl coconut oil. The diet was weighed weekly and the diet consumption of mice in each group was recorded.

CO[C@H]1O[C@@H]2O[C@@]3(C)CC[C@H]4[C@H](C)CC[C@@H]([C@H]1C)[C@@]24OO3 [artemether]
cell morphology of C3H10T1/2 [1]: exhibited brown adipocyte-like characteristics
weight of mice ([2]; subcutaneous injection 15 Mol/L in PBS, 200 μl each inguinal side, statistically different after six weeks): significantly lower than that of mice in control group
weight gain of mice ([2]; subcutaneous injection): significantly slower than that of mice in control group
lipid in the liver (fatty liver) [3]: only a small amount of lipid
body temperature in an environment of 4° C. [4]: significantly higher than that of mice in control group
UCP1 expression in subcutaneous fat (immunohistochemistry) ([4]; after 6 hours at 4° C.): exhibited significant UCP1 expression
weight gain of mice [5]: significantly slower than that of mice in control group
weight of mice ([5]; statistically different after three weeks): significantly lower than that of mice in control group
diet consumption of mice ([6]; high-fat groups): substantially the same as that of mice in control group
anorexia nervosa ([6]; normal diet and high fat diet): did not cause anorexia nervosa
diet consumption of mice ([6]; normal groups): not different from that of mice in control group

Source: patent US20190133997A1, “ARTEMISININ ANALOG, AND USE, METHOD, AND COMPOSITION FOR PROMOTING LIPID CATABOLISM AND IMPROVING SUGAR METABOLISM” (FUDAN UNIVERSITY, priority 2016, published 2019)
